# Earlier results in patent publication US20250134923A1, “SUPERABSORBENT HYDROGELS WITH LIPASE INHIBITOR” (JUNION LABS PTE. LTD., priority 2021, published 2025).
# Test system: fat absorption
# Conditions: therapeutic doses (120 mg with meals)
structure (smiles),measurement,value
"CCCCCCCCCCC[C@@H](C[C@@H]1OC(=O)[C@H]1CCCCCC)OC(=O)[C@H](CC(C)C)NC=O [Orlistat, (2S,3S,5S)-5-[(S)-2-formamido4-methyl-valeryloxy]-2-hexyl-3-hydroxy-hexadecanoic 1,3 acid lactone]",additional caloric deficit,approximately 200 calories
same,inhibition of fat absorption (of ingested fat),approximately 30%
